{"source": "patent US20190167612A1", "about": "“PHARMACEUTICAL FORMULATION FOR ORAL ADMINISTRATION WITH CONTROLLED DISSOLUTION RATE COMPRISING SUSTAINED-RELEASE PELLETS CONTAINING TAMSULOSIN HYDROCHLORIDE” (HANMl PHARM. CO., LTD., priority 2016, published 2019)", "origin": "cited, not measured here", "key": {"[1]": {"conditions": "in vivo"}}, "note": "Where a name gives a salt, the structure may show the parent alone.", "data": [{"smiles": "CCOc1ccccc1OCCN[C@H](C)Cc1ccc(OC)c(S(N)(=O)=O)c1", "note": "[Tamsulosin hydrochloride, (R)-5-[2-[[2-(2-ethoxyphenoxy)ethyl]-amino]propyl]-2-methoxy-benzenesulfonamide]", "values": [{"measurement": "Bioavailability", "setting": "[1]", "value": "≥ 90", "unit": "%"}, {"measurement": "Solubility in water", "value": "slight solubility in water"}]}]}
